# Legend:
# Assay in all cases: relative viability (nuclei count vs DMSO), 5 days (fraction); higher = more cells survive
# GSK126 + Bortezomib = compound: CC[C@H](C)N1C=C(C2=C(C=C(C=C21)C3=CN=C(C=C3)N4CCNCC4)C(=O)NCC5=C(C=C(NC5=O)C)C)C [GSK126] + CC(C)C[C@H](NC(=O)[C@H](Cc1ccccc1)NC(=O)c1cnccn1)B(O)O [Bortezomib] (partner 0.002 µM)
# How it was run: (§1)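 Lung cancer cell lines, seeded in 1536-well plates, were treated the following day by pin tool with a single drug or with five library-drug doses (not always all listed) in √10 steps on top of a fixed anchor-drug dose. Cells were fixed and nuclei stained in one step after 5 days, and nuclei were counted. Relative viability is the nuclei count for treated wells divided by that for vehicle wells, reported as medians of duplicate plates.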
# Carboplatin + Phenformin = compound: C1CC(C1)(C(=O)O)C(=O)O.[NH2-].[NH2-].[Pt+2] [Carboplatin] + N=C(N)NC(=N)NCCc1ccccc1 [Phenformin] (partner 250 µM)
# How it was run: as §1
# GSK126 + Phenformin = compound: CC[C@H](C)N1C=C(C2=C(C=C(C=C21)C3=CN=C(C=C3)N4CCNCC4)C(=O)NCC5=C(C=C(NC5=O)C)C)C [GSK126] + N=C(N)NC(=N)NCCc1ccccc1 [Phenformin] (partner 250 µM)
# How it was run: as §1
# MLN4924 + Pictilisib = compound: NS(=O)(=O)OC[C@@H]1C[C@@H](n2ccc3c(N[C@H]4CCc5ccccc54)ncnc32)C[C@@H]1O [MLN4924] + CS(=O)(=O)N1CCN(Cc2cc3nc(-c4cccc5[nH]ncc45)nc(N4CCOCC4)c3s2)CC1 [Pictilisib] (partner 1 µM)
# How it was run: as §1
cell line,measurement,setting,value
UMC-11,relative viability,GSK126 + Bortezomib; first compound 0.08 µM,0.842
same,relative viability,GSK126 + Bortezomib; first compound 0.253 µM,0.628
same,relative viability,GSK126 + Bortezomib; first compound 0.8 µM,0.747
same,relative viability,GSK126 + Bortezomib; first compound 2.53 µM,0.643
same,relative viability,GSK126 + Bortezomib; first compound 8 µM,0.895
same,relative viability,Carboplatin + Phenformin; first compound 0.08 µM,0.346
same,relative viability,Carboplatin + Phenformin; first compound 0.253 µM,0.324
same,relative viability,Carboplatin + Phenformin; first compound 0.8 µM,0.317
same,relative viability,Carboplatin + Phenformin; first compound 2.53 µM,0.331
same,relative viability,Carboplatin + Phenformin; first compound 8 µM,0.275
same,relative viability,GSK126 + Phenformin; first compound 0.08 µM,0.35
same,relative viability,GSK126 + Phenformin; first compound 0.253 µM,0.344
same,relative viability,GSK126 + Phenformin; first compound 0.8 µM,0.312
same,relative viability,GSK126 + Phenformin; first compound 2.53 µM,0.32
same,relative viability,GSK126 + Phenformin; first compound 8 µM,0.3
same,relative viability,MLN4924 + Pictilisib; first compound 0.04 µM,0.593
same,relative viability,MLN4924 + Pictilisib; first compound 0.1265 µM,0.357
same,relative viability,MLN4924 + Pictilisib; first compound 0.4 µM,0.267
same,relative viability,MLN4924 + Pictilisib; first compound 1.265 µM,0.14
same,relative viability,MLN4924 + Pictilisib; first compound 4 µM,0.14

# Source: the supplement of paper PMC10307832
